Results taken from patent publication US10047105B2, “Gyrase inhibitors” (Merck Sharp & Dohme Corp., priority 2009, dated 2018).
In brackets after ≈: the same amount, converted by molar mass.

Assays:
S. aureus ATCC 13709 = assay: MIC, antibacterial potency, S. aureus; assay type: cell-based; details: S. aureus
S. pneumoniae ATCC 51916 = assay: MIC, S. pneumoniae; assay type: cell-based; details: S. pneumoniae

Structure (SMILES) | MIC, SA (S. aureus ATCC 13709) [µg/mL] | MIC Spn52 (S. pneumoniae ATCC 51916) [µg/mL]
CCc1[nH]c2nc(Sc3cnc4nccnc4c3)nc(N3CC[C@H](N(C)C)C3)c2c1Cl.O=C(O)C(F)(F)F [700,497] | 1 | 4
CCc1[nH]c2nc(Nc3cnc4c(c3)nnn4CC3CC3)nc(N3CC(O)C3)c2c1Br.O=C(O)C(F)(F)F [700,498] | 16 | > 64
CCc1[nH]c2nc(Sc3cnc4nccnc4c3)nc(N3CC(CNC(=N)N)C3)c2c1Cl.O=C(O)C(F)(F)F [700,502] | 16 | > 64
CCc1[nH]c2nc(Sc3cnc4nccnc4c3)nc(N3CC(NC(=N)N)C3)c2c1Cl.O=C(O)C(F)(F)F [700,503] | 16 | > 64
CCc1[nH]c2nc(Sc3cnc4nccnc4c3)nc(N3CC(NC(=O)CN4CCNCC4)C3)c2c1Cl.O=C(O)C(F)(F)F.O=C(O)C(F)(F)F [700,504] | 4 | 32
CCc1[nH]c2nc(Sc3cnc4nccnc4c3)nc(N3CC(NC(=O)CNC4CCOC4=O)C3)c2c1Cl.O=C(O)C(F)(F)F (stereo not drawn) [700,505] | 4 | 32
CCc1[nH]c2nc(Sc3cnc4nccnc4c3)nc(N3CC(NC(=O)COn4nnc5ccccc54)C3)c2c1Cl [700,506] | ≤ 0.5 | 1 (≈ 1.7 µM)
CCc1[nH]c2nc(Sc3cnc4c(C(C)C)nc(N)nc4c3)nc(OCCn3ccnc3)c2c1Cl.O=C(O)C(F)(F)F [700,507] | > 64 | > 64
CCc1[nH]c2nc(Sc3cnc4nccnc4c3)nc(NCCNC(=O)OC(C)(C)C)c2c1Cl.O=C(O)C(F)(F)F [700,508] | 2 | 4
CCc1[nH]c2nc(Sc3cnc4nccnc4c3)nc(NCCN)c2c1Cl.O=C(O)C(F)(F)F [700,509] | 16 | 16
CCc1[nH]c2nc(Sc3cnc4nccnc4c3)nc(NCCN3CCCC3)c2c1Cl.O=C(O)C(F)(F)F [700,510] | > 64 | > 64
CCc1[nH]c2nc(Sc3cnc4nccnc4c3)nc(NCCN3CCNCC3)c2c1Cl.O=C(O)C(F)(F)F.O=C(O)C(F)(F)F [700,511] | > 64 | > 64
CCc1[nH]c2nc(Sc3cnc4nccnc4c3)nc(NCCNC)c2c1Cl.O=C(O)C(F)(F)F [700,512] | > 64 | > 64
CCc1[nH]c2nc(Sc3cnc4nccnc4c3)nc(NCCN(C)C)c2c1Cl.O=C(O)C(F)(F)F [700,513] | > 64 | 32
CCc1[nH]c2nc(Sc3cnc4c(N)nc(C)nc4c3)nc(N3CC(O)C3)c2c1Cl.O=C(O)C(F)(F)F [700,514] | ≤ 0.5 | ≤ 0.5
CCc1[nH]c2nc(Sc3cnc4c(N)nc(C)nc4c3)nc(N3CC(N)C3)c2c1Cl.O=C(O)C(F)(F)F [700,515] | 1 | 1
CCc1[nH]c2nc(Sc3cnc4nccnc4c3)nc(N3CC(CNC(=O)C4CC4)C3)c2c1Cl [700,516] | ≤ 0.5 | 1 (≈ 2.02 µM)
CCc1[nH]c2nc(Sc3cnc4nccnc4c3)nc(N3CC(CNC(=O)C4CCC4)C3)c2c1Cl [700,517] | ≤ 0.5 | 2 (≈ 3.93 µM)
CCc1[nH]c2nc(Sc3cnc4nccnc4c3)nc(N3CC(CNC(=O)CCN4CCCCC4)C3)c2c1Cl [700,518] | 4 (≈ 7.07 µM) | 4 (≈ 7.07 µM)
CCc1[nH]c2nc(Sc3cnc4nccnc4c3)nc(N3CC(CNC(=O)CN4C(=O)CSC4=O)C3)c2c1Cl [700,519] | 1 (≈ 1.71 µM) | 1 (≈ 1.71 µM)

Structure (SMILES) | MIC, SA (S. aureus ATCC 13709) [µg/mL] | MIC Spn52 (S. pneumoniae ATCC 51916) [µg/mL]
CCc1[nH]c2nc(Sc3cnc4nccnc4c3)nc(N3CC(CNC(=O)[C@@H]4CCC(=O)N4)C3)c2c1Cl [700,520] | 8 (≈ 14.9 µM) | 16 (≈ 29.7 µM)
CCc1[nH]c2nc(Sc3cnc4nccnc4c3)nc(N3CC(CNC(=O)C4CCC(O)CC4)C3)c2c1Cl (stereo not drawn) [700,521] | 1 (≈ 1.81 µM) | 2 (≈ 3.62 µM)
CCc1[nH]c2nc(Sc3cnc4nccnc4c3)nc(N3CC(CNC(=O)C4CCCO4)C3)c2c1Cl (stereo not drawn) [700,522] | ≤ 0.5 | 2 (≈ 3.81 µM)
CCc1[nH]c2nc(Sc3cnc4nccnc4c3)nc(N3CC(CNC(=O)COCCOCCOC)C3)c2c1Cl [700,523] | 2 (≈ 3.41 µM) | 4 (≈ 6.81 µM)
CCc1[nH]c2nc(Sc3cnc4nccnc4c3)nc(N3CC(CNC(=O)c4cn(C)nc4C(F)(F)F)C3)c2c1Cl [700,524] | ≤ 0.5 | ≤ 0.5
CCc1[nH]c2nc(Nc3cnc4c(c3)nnn4C(C)C)nc(N3CC(O)C3)c2c1Cl.O=C(O)C(F)(F)F [700,525] | > 64 | > 64
CCc1[nH]c2nc(Nc3cnc4c(c3)nnn4C(C)C)nc(N3CC(NC(=O)O)C3)c2c1Cl.O=C(O)C(F)(F)F [700,526] | 8 | > 64
CCc1[nH]c2nc(Nc3cnc4c(c3)nnn4C(C)C)nc(N3CC(N)C3)c2c1Cl.O=C(O)C(F)(F)F.O=C(O)C(F)(F)F [700,527] | 16 | 8
CCc1[nH]c2nc(Nc3cnc4c(c3)nnn4C(C)C)nc(N3CC[C@@H](N(C)C)C3)c2c1Cl.O=C(O)C(F)(F)F.O=C(O)C(F)(F)F [700,528] | 8 | 8
CCc1[nH]c2nc(Nc3ccc4c(N)nc(C)nc4c3)nc(N3CC(N)C3)c2c1Cl.O=C(O)C(F)(F)F.O=C(O)C(F)(F)F [700,531] | 8 | 4
CCc1[nH]c2nc(Nc3cnc4c(c3)nnn4C(C)C)nc(N(C)CCO)c2c1Cl.O=C(O)C(F)(F)F [700,534] | 2 | > 32
CCc1[nH]c2nc(Nc3cnc4c(c3)nnn4C(C)C)nc(OC)c2c1Br.O=C(O)C(F)(F)F [700,535] | ≤ 0.5 | 4
CCc1nc2c(N3CC(N)C3)nc(Sc3cnc4c(N)nc(C)nc4c3)nc2[nH]1 [700,538] | > 16 | > 16
CCc1[nH]c2nc(Sc3cnc4nccnc4c3)nc(N3CC(NCc4cccnc4)C3)c2c1Cl [700,539] | ≤ 0.5 | 1 (≈ 1.98 µM)
CCc1[nH]c2nc(Sc3cnc4nccnc4c3)nc(N3CCC(N)C3)c2c1Cl (stereo not drawn) [700,540] | 1 (≈ 2.34 µM) | 2 (≈ 4.68 µM)
CCc1[nH]c2nc(Sc3cnc4nccnc4c3)nc(N3CCC(N)CC3)c2c1Cl [700,541] | 4 (≈ 9.07 µM) | 4 (≈ 9.07 µM)
CCc1[nH]c2nc(Sc3cnc4nccnc4c3)nc(-n3ccnc3)c2c1Cl [700,542] | 2 (≈ 4.89 µM) | 8 (≈ 19.6 µM)
CCOC(=O)Cc1nc(N2CCC(O)C2)c2c(Cl)c(CC)[nH]c2n1 (stereo not drawn) [700,544] | > 64 | > 64
CCc1[nH]c2nc(Sc3cc(=O)n(C)c(=O)[nH]3)nc(N3CC(N)C3)c2c1Br.O=C(O)C(F)(F)F [700,545] | 2 | 4
CCc1[nH]c2nc(Sc3cnc4nccnc4c3)nc(N(C)Cc3cccnc3)c2c1Cl.O=C(O)C(F)(F)F [700,546] | 4 | 16

Structure (SMILES) | MIC, SA (S. aureus ATCC 13709) [µg/mL] | MIC Spn52 (S. pneumoniae ATCC 51916) [µg/mL]
CCc1[nH]c2nc(Sc3cnc4nccnc4c3)nc(N3CCC4(CCCN4)C3)c2c1Cl (stereo not drawn) [700,547] | 4 (≈ 8.57 µM) | 4 (≈ 8.57 µM)
CCc1[nH]c2nc(Sc3cnc4nccnc4c3)nc(N3CC4CNC4C3)c2c1Cl.O=C(O)C(F)(F)F (stereo not drawn) [700,548, 7-(4-(3,6-diazabicyclo[3.2.0]heptan-3-yl)-5-chloro-6-ethyl-7H-pyrrolo[2,3-d]pyrimidin-2-ylthio)pyrido[3,2-b]pyrazine] | ≤ 0.5 | 2
CCc1[nH]c2nc(Sc3cnc4nccnc4c3)nc(N3CC[C@H](NC)C3)c2c1Cl.O=C(O)C(F)(F)F [700,549] | 4 | 4
CCc1[nH]c2nc(Nc3cnc4c(c3)nnn4C(C)C)nc(OC)c2c1Cl.O=C(O)C(F)(F)F [700,550] | 1 | 8
CCc1[nH]c2nc(Oc3cncnc3)nc(Oc3cncnc3)c2c1Cl.O=C(O)C(F)(F)F [700,551] | 2 | 4
CCc1[nH]c2nc(Oc3cncnc3)nc(Oc3cncnc3)c2c1Br.O=C(O)C(F)(F)F [700,552] | ≤ 0.5 | 2
CCc1[nH]c2nc(Sc3cnc4nccnc4c3)nc(OS(=O)(=O)c3ccc(C)cc3)c2c1Cl [700,558] | 8 (≈ 15.6 µM) | > 64
CCc1[nH]c2nc(Sc3nc(C(=O)O)c(Cl)s3)nc(N3CCC(N)C3)c2c1Cl (stereo not drawn) [700,559] | > 64 | > 64
CCc1[nH]c2nc(Sc3cccnc3)nc(N3CC(N)C3)c2c1Cl [700,560] | 8 (≈ 22.2 µM) | 32 (≈ 88.7 µM)
CCc1[nH]c2nc(Sc3cnc(Oc4cccnc4)nc3)nc(N3CC(N)C3)c2c1Cl [700,561] | 16 (≈ 35.2 µM) | 32 (≈ 70.3 µM)
CCc1[nH]c2nc(Sc3ccc[n+]([O-])c3)nc(N3CC(N)C3)c2c1Cl [700,562] | 16 (≈ 42.5 µM) | 64 (≈ 170 µM)
CCc1[nH]c2nc(Sc3cnc4nccnc4c3)nc(N3CC4CCNC4C3)c2c1Cl.O=C(O)C(F)(F)F (stereo not drawn) [700,563] | 1 | 2
CCc1[nH]c2nc(Sc3cnc4nccnc4c3)nc(N3CCC4CNCC43)c2c1Cl.O=C(O)C(F)(F)F (stereo not drawn) [700,564] | 8 | 16
CCc1[nH]c2nc(Sc3cnc4nccnc4c3)nc(N3CC4CNCC4C3)c2c1Cl.O=C(O)C(F)(F)F (stereo not drawn) [700,565] | 2 | 4
CCc1[nH]c2nc(Sc3cnc4nccnc4c3)nc(N3CC4CNCC43)c2c1Cl.O=C(O)C(F)(F)F (stereo not drawn) [700,566] | > 64 | 64
CCc1[nH]c2nc(Sc3cnc4nccnc4c3)nc(N3CCC(NC)C3)c2c1Cl.O=C(O)C(F)(F)F (stereo not drawn) [700,567] | 7 | 4
CCc1[nH]c2nc(Sc3cnc4nccnc4c3)nc(N3C[C@H]4CCCN[C@H]4C3)c2c1Cl.O=C(O)C(F)(F)F [700,568] | ≤ 0.5 | 2
CCc1[nH]c2nc(Sc3cnc4nccnc4c3)nc(N3CCCNCC3)c2c1Cl.O=C(O)C(F)(F)F [700,569] | 8 | 4
CCc1[nH]c2nc(Sc3cnc4nccnc4c3)nc(N(C)C[C@@H](O)c3cccc(O)c3)c2c1Cl.O=C(O)C(F)(F)F [700,570] | 1 | 8
CCc1[nH]c2nc(Sc3cnc4nccnc4c3)nc(N3CC4CN(C(=O)OC(C)(C)C)C4C3)c2c1Cl (stereo not drawn) [700,571] | 8 (≈ 14.8 µM) | 8 (≈ 14.8 µM)
